Measurements taken from PubChem BioAssay (NCI).
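Briefly, cells in 96-well plates were exposed to five compound concentrations for 48 h, and endpoints were estimated by linear interpolation. Here, GI50 denotes the concentration required for 50% inhibition of growth. TGI: concentration producing complete growth inhibition.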

Columns and labels:
Assay in all cases: NCI tumour cell line growth inhibition, 48 h
[1] = tested on: MDA-MB-468 breast
[2] = tested on: HL-60(TB) leukemia
[3] = tested on: OVCAR-3 ovarian
[4] = tested on: OVCAR-4 ovarian
[5] = tested on: SK-MEL-28 melanoma
[6] = tested on: SK-OV-3 ovarian
[7] = tested on: CAKI-1 renal
[8] = tested on: UACC-62 melanoma
[9] = tested on: TK-10 renal
[10] = tested on: DU-145 prostate
[11] = tested on: T-47D breast
[12] = tested on: SNB-75 CNS
[13] = tested on: UO-31 renal
[14] = tested on: BT-549 breast
[15] = tested on: OVCAR-5 ovarian
[16] = tested on: PC-3 prostate
[17] = tested on: EKVX NSCLC
[18] = tested on: NCI-H226 lung
[19] = tested on: 786-0 renal
[20] = tested on: HS 578T breast
[21] = tested on: SN12C renal
[22] = tested on: A498 renal
[23] = tested on: SF-268 CNS
[24] = tested on: MOLT-4 leukemia
[25] = tested on: HOP-92 NSCLC
[26] = tested on: CCRF-CEM leukemia
[27] = tested on: SNB-19 CNS
[28] = tested on: SR leukemia
[29] = tested on: HOP-62 NSCLC

In the case of CN1C/C=C\CCOc2cccc(c2)-c2ccnc(n2)Nc2cccc(c2)C1, the GI50 [1] is reported as 0.0642 µM and the TGI [1] is reported as 0.289 µM.
In the case of COc1cc2c(c(OC)c1OC)-c1ccc(OC)c(=O)cc1[C@@H](NC(=O)c1ccccc1)CC2, the GI50 [1] is reported as 0.0552 µM and the TGI [1] is reported as over 100 µM.
Molecule CNCc1cccc2c1OCCCCCC[C@@](C)(O)CC1(CC1)S(=O)(=O)c1ccc(cc1)-c1cnc(N)c(n1)C(=O)N2 has a GI50 [2] of 19.7 nM, a TGI [2] of 324 nM and a GI50 [3] of 1260 nM. For the same molecule, the TGI [3] was 4.73 µM, the GI50 [4] was 2930 nM and the TGI [4] was 26.3 µM. The GI50 [5] was 1300 nM, the TGI [5] was 2650 nM and the GI50 [6] was 1540 nM. It also gave a TGI [6] of 19.4 µM, a GI50 [7] of 365 nM and a TGI [7] of 5.76 µM. For the same molecule, the GI50 [8] was 1600 nM, the TGI [8] was 3.06 µM and the GI50 [9] was 1550 nM. For the same molecule, the TGI [9] was 18.6 µM, the GI50 [10] was 1030 nM and the TGI [10] was 2880 nM. It also gave a GI50 [11] of 3.24 µM, a TGI [11] of over 88.8 µM and a GI50 [12] of 213 nM. It also gave a TGI [12] of 16.3 µM, a GI50 [13] of 74.1 nM and a TGI [13] of 2150 nM. The GI50 [14] was 716 nM, the TGI [14] was 14.5 µM and the GI50 [15] was 2000 nM. For the same molecule, the TGI [15] was 5.82 µM, the GI50 [16] was 599 nM and the TGI [16] was 3.82 µM. It also gave a GI50 [17] of 1420 nM, a TGI [17] of 4.86 µM and a GI50 [18] of 1530 nM. The TGI [18] was 4.18 µM, the GI50 [19] was 53.6 nM and the TGI [19] was 14.2 µM. It also gave a GI50 [20] of 280 nM, a TGI [20] of 4.3 µM and a GI50 [21] of 1260 nM. It also gave a TGI [21] of 13.9 µM, a GI50 [22] of 3.93 µM and a TGI [22] of 25.4 µM. The GI50 [23] was 1410 nM, the TGI [23] was 4.18 µM and the GI50 [24] was 10.2 nM. It also gave a TGI [24] of 2190 nM, a GI50 [25] of 1820 nM and a TGI [25] of 4.55 µM. It also gave a GI50 [26] of 10.2 nM, a TGI [26] of 634 nM and a GI50 [27] of 1880 nM. It also gave a TGI [27] of 4.36 µM, a TGI [28] of 173 nM and a GI50 [29] of 1980 nM. For the same molecule, the TGI [29] was 4.65 µM.
In the case of CCOC(=O)[C@@H](N)CCC(=O)N[C@@H](CSCc1ccccc1)C(=O)N[C@@H](C(=O)OCC)c1ccccc1, the GI50 [1] is reported as 11.9 µM and the TGI [1] is reported as 24.9 µM.
Molecule C[C@@]12CC=C3c4nc(Nc5cccc(O)c5)sc4CC[C@]3(C)[C@H]1CC[C@]1(C)C(=O)CC[C@@H]21 has a GI50 [1] of 2.29 µM and a TGI [1] of 5.21 µM.
CN1CCN(CCCOc2ccc3nc(Nc4ccc(Cl)c(C(F)(F)F)c4)ccc3c2)CC1 showed a GI50 [1] of 12.2 µM and a TGI [1] of 26.9 µM.
With O=C(N/N=C/c1ccc(Cl)cc1)c1ccc(C(F)(F)F)nc1Nc1cccc(C(F)(F)F)c1 the GI50 [1] was 1.12 µM and the TGI [1] was 4.28 µM.
CN(C)C(=O)c1cc2cnc(Nc3ccc(-c4csc5c(=S)cc(N6CCOCC6)oc45)cc3)nc2n1C1CCCC1 was tested, and the GI50 [1] was 0.397 µM and the TGI [1] was 2.37 µM.
COc1nc2ccccc2cc1-c1nc2c(cnn2-c2ccc(Br)cc2)c(=O)[nH]1 gave a GI50 [1] of 0.0219 µM and a TGI [1] of 0.616 µM.
For c1cc(CNC23CC4CC(CC(C4)C2)C3)cc(C[N+](Cc2cccc(CNC34CC5CC(CC(C5)C3)C4)c2)(Cc2cccc(CNC34CC5CC(CC(C5)C3)C4)c2)Cc2cccc(CNC34CC5CC(CC(C5)C3)C4)c2)c1 (stereo not drawn), the GI50 [1] was 3.33 µM and the TGI [1] was 7.03 µM.
Molecule CC(C)n1nc(-c2cc3cc(O)ccc3[nH]2)c2c(N)ncnc21 has a GI50 [1] of 0.163 µM and a TGI [1] of 1.01 µM.
O=C(NC1=CC(=O)c2ccccc2C1=O)c1ccccc1 showed a GI50 [1] of 1.08 µM and a TGI [1] of 2.41 µM.
With COc1cc2ncnc(Nc3ccc(C)c(O)c3)c2cc1OC the GI50 [1] was 2.39 µM and the TGI [1] was 8.87 µM.
Work on CCCCC(O)(c1ccc(Cl)cc1)C(CN1CCOCC1)c1ccc(Cl)cc1 (stereo not drawn) yielded a GI50 [1] of 11.2 µM and a TGI [1] of 25.9 µM.
With CNc1ccc(C(=O)CC(O)CCC(C)C2OC(=O)CC(O)CC(=O)CC(O)CC(O)CC(O)CC(O)CC3(O)CC(O)C(C(=O)OC)C(CC(O[C@@H]4O[C@H](C)[C@@H](O)[C@H](N)[C@@H]4O)/C=C/C=C/C=C/C=C/C=C/C=C/C=C/C2C)O3)cc1 (stereo partly drawn) the GI50 [1] was 5.14 µM and the TGI [1] was 25 µM.
COC(=O)[C@H](C)NC(=O)NC(=O)NC(=O)CI showed a GI50 [1] of 9.14 µM and a TGI [1] of 23.5 µM.
With CC(C)(C)c1cc(C(C)(C)C)cc(S(=O)(=O)Nc2cc3ccccc3cc2C(=O)NCCN)c1 the GI50 [1] was 1.85 µM and the TGI [1] was 3.39 µM.
COc1cc2nc3cc([N+](=O)[O-])ccc3c(NCCCNCCO)c2cc1OC was tested, and the GI50 [1] was 0.193 µM and the TGI [1] was 0.467 µM.
Work on CN1CCN(Cc2ccc(NC(=O)c3cncc(C#Cc4cnc5ccc(O[C@@H]6CCOC6)nn45)c3)cc2C(F)(F)F)CC1 yielded a GI50 [1] of 0.209 µM and a TGI [1] of 0.834 µM.
For COc1cc(-c2ccc3c(c2)NC(=O)/C3=C\c2ccc[nH]2)ccc1O, the GI50 [1] was 0.179 µM and the TGI [1] was over 50 µM.
COc1ccccc1CNCCCN1C(=O)c2ccc3c4c(ccc(c24)C1=O)C(=O)N(CCCOCCCCOCCCN)C3=O was tested, and the GI50 [1] was 0.288 µM and the TGI [1] was 1.32 µM.
With CCCCCCCC/C=C/CCCCCCCC(=O)OC[C@H]1O[C@@H](n2ccc(N)nc2=O)C(F)(F)[C@@H]1O the GI50 [1] was under 0.0289 µM and the TGI [1] was 3.76 µM.
Molecule COc1cc(/C=C/c2cc(/C=C/c3ccc(O)c(OC)c3)n(C(=O)Nc3ccc(F)c(Cl)c3)n2)ccc1O has a GI50 [1] of 0.266 µM and a TGI [1] of 0.829 µM.
Work on NC(=O)c1c(NC(=O)c2ccc(C(F)(F)F)cc2)sc2c1CCC(=O)C2 yielded a GI50 [1] of 1.66 µM and a TGI [1] of 4.22 µM.
Molecule NS(=O)(=O)c1ccc(N=Nc2c(O)[nH]c3ccc(-c4cnco4)cc23)cc1 has a GI50 [1] of over 25 µM and a TGI [1] of over 25 µM.
In the case of COC(=O)[C@@H](C)CNS(=O)(=O)N(c1cc(C(F)(F)F)cc(C(F)(F)F)c1)C1CCN(Cc2ccc(F)cc2)CC1, the GI50 [1] is reported as 3.25 µM and the TGI [1] is reported as 15.3 µM.
Work on COc1ccc(-c2n[nH]nc2-c2cc(OC)c(OC)c(OC)c2)cc1 yielded a GI50 [1] of under 0.01 µM and a TGI [1] of under 0.01 µM.
Molecule O=C1OC(C(O)CO)C(=O)C1=O (stereo not drawn) has a GI50 [1] of 1810 µM and a TGI [1] of 4350 µM.
C=C1C(=O)O[C@H]2[C@H]1CC/C(COC(=O)C(=O)c1cn(Cc3ccccc3)c3ccccc13)=C\CC[C@@]1(C)O[C@@H]21 was tested, and the GI50 [1] was 1.88 µM and the TGI [1] was 3.8 µM.
Work on COc1ccc(Cn2cc3c(c2-c2ccccc2)CC(C)(C)c2cnoc2-3)cc1 yielded a GI50 [1] of 0.542 µM and a TGI [1] of 5.91 µM.
